Data on 11 molecules can be found in PMC8667898, “Topo II inhibition and DNA intercalation by new phthalazine-based derivatives as potent anticancer agents: design, synthesis, anti-proliferative, docking, and in vivo studies” (Journal of Enzyme Inhibition and Medicinal Chemistry, 2021).

The test system of data set [1] is HepG-2 cells (hepatocellular carcinoma). Briefly: MTT anti-proliferative assay, HepG-2. Conditions: for IC50: mean ± SD of three separate experiments, read-out: In vitro Cytotoxicity IC50 HepG-2. It is filed as cell-based, human. Here is the method: Anti-proliferative activities of the target compounds were assessed via the standard MTT method[38–40] against three cancer cell lines, namely, hepatocellular carcinoma (HepG-2), colorectal carcinoma (HCT-116), and human breast adenocarcinoma (MCF-7).
(§1) Anti-proliferative activity of the synthesised compounds was estimated using the MTT assay protocol[8]^,[38–40] as shown in Supplementary data.
(§2) 4.2.1. In vitro anti-proliferative activity against MCF-7, HepG-2 and HCT-116 The cells were cultured in RPMI-1640 medium supplemented with 10% fetal bovine serum (FBS), penicillin (100 unit /mL) and streptomycin sulphate (100µg/mL) at 37 °C in a 5% CO2 incubator.
(§3) Then, cells were dropped in 96-well plates at a density of 3-8 × 10^3 cells/well and incubated for two days in a 5% CO2 incubator at 37 °C. Then, the cells were treated with the synthesized compounds and the cell cultures were continued incubated for 24 h. However, Different concentrations of the compound under test (0.0, 5.0, 12.5, 25.0 and 50 mg/ml) were added to the cell monolayer. Then, (3-[4,5-dimethylthiazol-2-yl]- 2,5-diphenyltetrazolium bromide) MTT solution (20 µl, 5mg/mL) was added to each well and incubated for additional 4 h. The formed purple crystals of MTT-formazan were dissolved in 100 µl DMSO each well; the absorbance of each well was measured at 570 nm using a plate reader (EXL 800, USA). All of the compounds were tested three times. The relative cell viability in percentage was calculated.
(§4) The data represented the mean of three independent experiments in triplicate and were expressed as means ± SD. […]

The test system of data set [2] is HCT-116 cells (colorectal carcinoma). As to the kind of experiment: MTT anti-proliferative assay, HCT-116. It is filed as cell-based, human. Conditions: for IC50: mean ± SD of three separate experiments, read-out: In vitro Cytotoxicity IC50 HCT-116. Here is the method: (§5) Anti-proliferative activities of the target compounds were assessed via the standard MTT method[38–40] against three cancer cell lines, namely, hepatocellular carcinoma (HepG-2), colorectal carcinoma (HCT-116), and human breast adenocarcinoma (MCF-7). Doxorubicin was used in this test as a positive control.
as §1, §2
as §3, with “calculated. The results for IC50 values of the active compounds are […]” for “calculated.”
as §4
(§6) of the cells could survive. […]
Background: Formazan colour is commonly taken as a measure of viable cells.

Data set [3] concerns MCF-7 cells (human breast adenocarcinoma). As to the kind of experiment: MTT anti-proliferative assay, MCF-7. The class given is cell-based. Conditions: for IC50: mean ± SD of three separate experiments, read-out: In vitro Cytotoxicity IC50 MCF-7. As to the method:
as §5, §1, §2
as §3, with “calculated. The results for IC50 values of the active compounds are […]” for “calculated.”
as §4, §6

The test system of data set [4] is Calf thymus DNA. As to the kind of experiment: DNA intercalation assay (DNA/methyl green colorimetric assay). It is filed as binding. Conditions: three independent experiments. Here is the method:
as §4
4.2.2. DNA intercalation assay (DNA/methyl green colorimetric assay)
Affinity of some compounds for DNA-binding was examined in vitro using DNA/methyl green assay using doxorubicin as a positive control. In this test, a mixture of methyl green (20 mg) and Calf thymus DNA (10 mg) (Sigma– Aldrich) were suspended in 0.05 M TrisHCl buffer (100 mL, pH 7.5) containing 7.5 mM MgSO4. This mixture was stirred continuously for 24 h at 37 °C. Then, ethanolic solution of the test compounds was pitted into the wells of a 96-well microtiter tray at a concentration of 10, 100 and 1000 µM. The excess solvent was removed from each well under vacuum, with subsequent addition of 200 µL of the DNA/methyl green solution. The test samples were incubated for 24 h in dark at ambient temperature. After that, absorbance of each sample was determined at 642.5–645 nm. In this test, the methyl green dye reversibly binds to DNA to form persistent colored complex of DNA/methyl green. This color still stables at neutral pH. When the DNA intercalators were added, the methyl green was displaced from DNA with addition of H2O molecule to the dye resulting in formation of the colorless carbinol leading to a decrease in spectrophotometric absorbance. ΔA value (the difference between DNA/methyl green complex and free cabinol) provides the simplest means for detecting the DNA-binding affinity and relative binding strength. IC50′s were determined by linear regression of data plotted on a semi -log scale and the data were compared with doxorubicin as standard DNA intercalator . […]

Data set [5] addresses T1, human Topo II (Homo sapiens, UniProt P11388).
T1 construct: purchased TopoGEN, Inc., Columbus
As to the kind of experiment: Topoisomerase II inhibitory activity (TopoGEN drug screening kit). It is filed as biochemical. Conditions: three independent experiments. As to the method:
The activity of topoisomerase II was determined according to the reported procedure described by Patra et al.[42]. […]
4.2.3. Measurement of topoisomerase II activity
Compounds (8a, 8b, 9a, 9c, 9d, 12a, and 12b) were further evaluated to assess their Topo II inhibitory activities. In this test, Topo II drug screening kit (TopoGEN, Inc., Columbus) was utilized to determine the Topo II activity. […] A typical enzyme […]
reaction contained a mixture of human Topo II (2 µL), substrate super coiled pHot1 DNA (0.25 µg), 50 µg/mL test compound (2 µL), and assay buffer (4 µL). The reaction started upon incubation of the mixture in 37 °C for 30 min. The reaction was terminated by addition of 10% sodium dodecylsulphate (2 µL) and proteinase K (50 µg/mL) at 37 °C for 15 min. followed by incubation for 15 min at 37 °C.
Then, the DNA was run on 1% agarose gel in BioRad gel electrophoresis system for 1–2 h followed by staining with GelRedTM stain for 2 h and destained for 15 min with TAE buffer. The gel was imaged Via BioRad’s Gel DocTMEZ system. Both supercoiled and linear strands DNA were incorporated in the gel as markers for DNA-Topo II intercalators. The results of IC50 values were calculated using the GraphPad Prism version 5.0. Each reaction was performed in duplicate, and at least three independent determinations of each IC50 were made.

[6] abbreviates: ratio of IC50 values vs doxorubicin.

Like-named read-outs stand apart in the source and are kept apart here.

T1 sequence (P11388 whole entry): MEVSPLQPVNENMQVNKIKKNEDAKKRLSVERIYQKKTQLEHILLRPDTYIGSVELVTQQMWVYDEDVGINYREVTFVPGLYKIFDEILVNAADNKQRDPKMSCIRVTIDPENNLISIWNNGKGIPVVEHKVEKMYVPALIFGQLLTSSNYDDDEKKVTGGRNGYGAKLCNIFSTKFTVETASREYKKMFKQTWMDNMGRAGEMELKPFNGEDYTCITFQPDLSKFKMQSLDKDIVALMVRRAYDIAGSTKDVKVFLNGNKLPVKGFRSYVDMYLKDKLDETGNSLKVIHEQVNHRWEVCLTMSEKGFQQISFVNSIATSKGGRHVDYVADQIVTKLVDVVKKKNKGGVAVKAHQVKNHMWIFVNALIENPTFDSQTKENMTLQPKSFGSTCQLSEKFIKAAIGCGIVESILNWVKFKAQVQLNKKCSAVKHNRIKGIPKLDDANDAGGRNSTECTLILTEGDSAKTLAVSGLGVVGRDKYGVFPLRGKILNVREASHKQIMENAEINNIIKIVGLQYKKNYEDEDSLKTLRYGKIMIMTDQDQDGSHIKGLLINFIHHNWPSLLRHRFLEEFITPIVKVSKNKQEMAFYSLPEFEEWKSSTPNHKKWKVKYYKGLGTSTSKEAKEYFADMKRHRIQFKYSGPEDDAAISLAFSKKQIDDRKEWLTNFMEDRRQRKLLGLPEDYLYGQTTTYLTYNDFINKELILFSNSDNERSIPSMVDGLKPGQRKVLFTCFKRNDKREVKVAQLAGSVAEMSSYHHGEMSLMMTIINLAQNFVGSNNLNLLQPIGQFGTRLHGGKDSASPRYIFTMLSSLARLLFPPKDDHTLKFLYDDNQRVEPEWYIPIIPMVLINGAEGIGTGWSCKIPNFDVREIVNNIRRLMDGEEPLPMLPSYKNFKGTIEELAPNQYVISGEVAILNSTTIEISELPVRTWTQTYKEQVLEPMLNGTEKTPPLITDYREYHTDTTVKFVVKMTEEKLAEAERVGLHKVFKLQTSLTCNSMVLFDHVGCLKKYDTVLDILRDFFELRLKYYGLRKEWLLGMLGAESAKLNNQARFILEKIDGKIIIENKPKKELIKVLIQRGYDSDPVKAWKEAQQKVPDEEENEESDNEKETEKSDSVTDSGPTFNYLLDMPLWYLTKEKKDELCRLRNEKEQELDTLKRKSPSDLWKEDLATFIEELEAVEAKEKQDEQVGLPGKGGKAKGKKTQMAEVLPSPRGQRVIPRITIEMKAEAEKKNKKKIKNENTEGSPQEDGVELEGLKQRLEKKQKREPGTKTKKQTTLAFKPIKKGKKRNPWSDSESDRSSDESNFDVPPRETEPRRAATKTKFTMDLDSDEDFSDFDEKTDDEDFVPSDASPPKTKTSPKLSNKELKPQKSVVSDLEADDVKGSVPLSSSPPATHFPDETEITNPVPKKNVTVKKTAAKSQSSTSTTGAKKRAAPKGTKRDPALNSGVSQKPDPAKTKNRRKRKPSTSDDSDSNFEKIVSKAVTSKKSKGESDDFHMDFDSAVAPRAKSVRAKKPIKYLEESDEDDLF

One may read the IC50 as the concentration that inhibits the measured activity by half. For the molecule `CCCc1nnc2c3ccccc3c3nnc(SCC(N)=O)n3n12` [Compound 15, 2-[(6-Propylbis([1,2, 4]triazolo)[3,4-a:4',3'-c]phthalazin-3-yl)thio]acetamide], the IC50 in data set [1] (Homo sapiens, HepG2, MTT) amounted to 38.6 ± 1 µM; in data set [2] (Homo sapiens, HCT-116, MTT), 53.5 ± 1.55 µM; in data set [3] (Homo sapiens, MCF7, MTT) it was 26.2 ± 0.77 µM; in data set [4] it was 71.2 ± 3.11 µM.
On the same counts, the results for `CCCc1nnc2c3ccccc3c(NNC(=O)Nc3ccccc3)nn12` [Compound 7b, N-Phenyl-2–(3-propyl-[1,2, 4]triazolo[3,4-a]phthalazin-6-yl)hydrazine-1-carboxamide] are 45 ± 1.1 µM, 48.6 ± 1.6 µM, 50.7 ± 1.55 µM and 36.6 ± 1.82 µM.
Regarding `CCCc1nnc2c3ccccc3c3nnc(SCC(=O)Nc4ccc(S(N)(=O)=O)cc4)n3n12` [Compound 14c, 2-[(6-Propylbis([1,2, 4]triazolo)[3,4-a:4',3'-c]phthalazin-3-yl)thio]-N-(4-sulfamoyl-phenyl)acetamide], the IC50 was 24.8 ± 0.88 µM in data set [1] (Homo sapiens, HepG2, MTT); 30.99 ± 0.11 µM in data set [2] (Homo sapiens, HCT-116, MTT); 20.6 ± 0.88 µM in data set [3] (Homo sapiens, MCF7, MTT); 46.3 ± 2.3 µM in data set [4].
`CCCc1nnc2c3ccccc3c3nnc(SCC(=O)Nc4ccc(C(=O)O)cc4)n3n12` [Compound 14a, 4-[2-((6-Propylbis([1,2, 4]triazolo)[3,4-a:4',3'-c]phthalazin-3-yl)thio)acetamido]benzoic acid]: the IC50 in data set [1] (Homo sapiens, HepG2, MTT) was 5.65 ± 0.25 µM; in data set [2] (Homo sapiens, HCT-116, MTT), 4.35 ± 0.19 µM; in data set [3] (Homo sapiens, MCF7, MTT) it was 4.36 ± 0.2 µM; in data set [4], 28.7 ± 1.71 µM; in data set [5] it was 7.64 ± 0.66 µM. For the same molecule, the “times more active than doxorubicin, HepG2” value in data set [1] (setting [6]) is listed as “about 1.46 times”. Besides, in data set [2] (setting [6]), the “times more active than doxorubicin, HCT-116” value was ~2.28 times. The “times more active than doxorubicin, MCF-7” value in data set [3] (setting [6]) is recorded as ~1.75 times.
Consider `CCCc1nnc2c3ccccc3c(NNC(=S)NCC)nn12` [Compound 8a, N-Ethyl-2–(3-propyl-[1,2, 4]triazolo[3,4-a]phthalazin-6-yl)hydrazine-1-carbothioamide], for which the half-inhibitory concentration (IC50) was found to be 28.9 ± 0.67 µM in data set [1] (Homo sapiens, HepG2, MTT); 25 ± 0.7 µM in data set [2] (Homo sapiens, HCT-116, MTT); 16.5 ± 0.43 µM in data set [3] (Homo sapiens, MCF7, MTT); 29.6 ± 1.41 µM in data set [4]; 22.3 ± 2 µM in data set [5].
On the same counts, the results for `CCCc1nnc2c3ccccc3c(NN=Cc3ccc(Cl)cc3)nn12` [Compound 9a, 6-[2–(4-Chlorobenzylidene)hydrazineyl]-3-propyl-[1,2, 4]triazolo[3,4-a]phthalazine] are 25.2 ± 0.7 µM, 36.3 ± 1.1 µM, 45.5 ± 1.22 µM, 43.8 ± 2.22 µM and 13.7 µM.
Turning to `CCCc1nnc2c3ccccc3c(NNC(=O)NC3CCCCC3)nn12` [Compound 7a, N-Cyclohexyl-2–(3-propyl-[1,2, 4]triazolo[3,4-a]phthalazin-6-yl)hydrazine-1-carboxamide], the half-maximal inhibitory concentration (IC50) stood at 24.9 ± 0.8 µM in data set [1] (Homo sapiens, HepG2, MTT); 23.8 ± 0.81 µM in data set [2] (Homo sapiens, HCT-116, MTT); 19.4 ± 0.62 µM in data set [3] (Homo sapiens, MCF7, MTT); 37.1 ± 2 µM in data set [4].
On to `CCCc1nnc2c3ccccc3c(NNC(=S)NC3CCCCC3)nn12` [Compound 8b, N-Cyclohexyl-2–(3-propyl-[1,2, 4]triazolo[3,4-a]phthalazin-6-yl)hydrazine-1-carbothioamide], for which the IC50 in data set [1] (Homo sapiens, HepG2, MTT) is 10.9 to 14.9 µM; in data set [1] (MTT), 10.9 ± 0.34 µM; in data set [2] (Homo sapiens, HCT-116, MTT), 10.9 to 14.9 µM; in data set [2] (MTT), 13.8 ± 0.44 µM; in data set [3] (Homo sapiens, MCF7, MTT), 10.9 to 14.9 µM; in data set [3] (MTT), 12.5 ± 0.32 µM. Besides, the figures for the IC50 in data set [4] and in data set [5] were 34.6 ± 1.1 µM and 8.91 ± 0.77 µM, respectively.
Consider `CCCc1nnc2c3ccccc3c(NN=Cc3ccc(F)cc3)nn12` [Compound 9b, 6-[2–(4-Fluorobenzylidene)hydrazineyl]-3-propyl-[1,2, 4]triazolo[3,4-a]phthalazine], for which the IC50 in data set [1] (Homo sapiens, HepG2, MTT) was found to be 63.9 ± 1.02 µM; in data set [2] (Homo sapiens, HCT-116, MTT) it was 61.7 ± 1.89 µM; in data set [3] (Homo sapiens, MCF7, MTT) it was 36 ± 0.98 µM; in data set [4], 49.9 ± 2.53 µM.
For the molecule `CCCc1nnc2c3ccccc3c(NN=Cc3ccc(O)cc3)nn12` [Compound 9c, 4-[(2–(3-Propyl-[1,2, 4]triazolo[3,4-a]phthalazin-6-yl)hydrazineylidene)methyl]-phenol], the IC50 was found to be 56.3 ± 1.73 µM in data set [1] (Homo sapiens, HepG2, MTT); 78.5 ± 2.04 µM in data set [2] (Homo sapiens, HCT-116, MTT); 57.8 ± 1.56 µM in data set [3] (Homo sapiens, MCF7, MTT); 21.4 ± 1.9 µM in data set [5].
As to `CCCc1nnc2c3ccccc3c3nnc(SCC(=O)Nc4ccc([N+](=O)[O-])cc4)n3n12` [Compound 14b, N-(4-Nitrophenyl)-2-[(6-propylbis([1,2, 4]triazolo)[3,4-a:4',3'-c]phthalazin-3-yl)thio]acetamide], the concentration for half-maximal inhibition (IC50) was 10.9 to 14.9 µM in data set [1] (Homo sapiens, HepG2, MTT); 13.4 ± 0.4 µM in data set [1] (MTT); 10.9 to 14.9 µM in data set [2] (Homo sapiens, HCT-116, MTT); 12.6 ± 0.45 µM in data set [2] (MTT); 10.9 to 14.9 µM in data set [3] (Homo sapiens, MCF7, MTT); 14.9 ± 0.55 µM in data set [3] (MTT). The IC50 in data set [4] is 34.4 ± 2.8 µM; in data set [5], 13.7 ± 1.02 µM.
